According to patent US20240368150A1 (Hoffmann-La Roche Inc., priority 2021, published 2024):
Like-named read-outs stand apart in the source and are kept apart here.

Columns and labels:
hDGKalpha(1-735)-N-His = hDGKalpha(1-735)-N-His (Homo sapiens (Human), UniProt P23743); assay: DGKalpha ADP Glo assay (in vitro DGK inhibition); type: biochemical; settings: DLG 125 uM, ATP 25 μM, DGK α 4 nM, 1 hour reaction
Method: (§1) DGK α and ζ kinase use ATP to phosphorylate the substrate 1,2-dilauroyl-sn-glycerol (DLG, incorporated in the liposomes). ATP is converted to ADP as a result of this enzymatic reaction. After the kinase reaction, an ATP-depletion reagent is added to terminate the kinase reaction and deplete any remaining ATP, leaving only ADP. Second, a detection reagent is added to simultaneously convert ADP to ATP and allow the newly synthesized ATP to be converted to light using a coupled luciferase/luciferin reaction.
(§2) Purification of both enzymes was performed as previously described by Takahashi et al., PeerJ, 2018 (Takahashi, D.; Sakane, F. Expression and purification of human diacylglycerol kinase alpha from baculovirus-infected insect cells for structural studies. PeerJ 2018, 6, No. e5449).
(§3) A concentrated liposome solution was prepared in assay buffer without DTT and BSA: 2 mM of DLG in 21 mM of total liposome (2 mM DLG/8 mM PS/11 mM PC). […] The reactions were started by addition of DGK α and ζ kinases at 4 nM and 2 nM final concentrations, respectively. After 1 hour reaction, the amount of ADP formed was detected with the ADP-Glo kinase assay (Promega) according to the manufacturer instructions. Compounds were added in 11-points dose response, starting at […], 1:3 dilutions, with a final DMSO concentration of 2%. The multidrop combi was used as a liquid handler and luminescence was read with 0.5 s by the envision reader (PE).

hDGKzeta(1-928)-N-His = hDGKzeta(1-928)-N-His (Homo sapiens (Human), UniProt Q13574); assay: DGKzeta ADP Glo assay (in vitro DGK inhibition); type: biochemical; settings: DLG 125 uM, ATP 50 μM, DGK ζ 2 nM, 1 hour reaction
Chain of hDGKzeta(1-928)-N-His (Q13574 whole entry): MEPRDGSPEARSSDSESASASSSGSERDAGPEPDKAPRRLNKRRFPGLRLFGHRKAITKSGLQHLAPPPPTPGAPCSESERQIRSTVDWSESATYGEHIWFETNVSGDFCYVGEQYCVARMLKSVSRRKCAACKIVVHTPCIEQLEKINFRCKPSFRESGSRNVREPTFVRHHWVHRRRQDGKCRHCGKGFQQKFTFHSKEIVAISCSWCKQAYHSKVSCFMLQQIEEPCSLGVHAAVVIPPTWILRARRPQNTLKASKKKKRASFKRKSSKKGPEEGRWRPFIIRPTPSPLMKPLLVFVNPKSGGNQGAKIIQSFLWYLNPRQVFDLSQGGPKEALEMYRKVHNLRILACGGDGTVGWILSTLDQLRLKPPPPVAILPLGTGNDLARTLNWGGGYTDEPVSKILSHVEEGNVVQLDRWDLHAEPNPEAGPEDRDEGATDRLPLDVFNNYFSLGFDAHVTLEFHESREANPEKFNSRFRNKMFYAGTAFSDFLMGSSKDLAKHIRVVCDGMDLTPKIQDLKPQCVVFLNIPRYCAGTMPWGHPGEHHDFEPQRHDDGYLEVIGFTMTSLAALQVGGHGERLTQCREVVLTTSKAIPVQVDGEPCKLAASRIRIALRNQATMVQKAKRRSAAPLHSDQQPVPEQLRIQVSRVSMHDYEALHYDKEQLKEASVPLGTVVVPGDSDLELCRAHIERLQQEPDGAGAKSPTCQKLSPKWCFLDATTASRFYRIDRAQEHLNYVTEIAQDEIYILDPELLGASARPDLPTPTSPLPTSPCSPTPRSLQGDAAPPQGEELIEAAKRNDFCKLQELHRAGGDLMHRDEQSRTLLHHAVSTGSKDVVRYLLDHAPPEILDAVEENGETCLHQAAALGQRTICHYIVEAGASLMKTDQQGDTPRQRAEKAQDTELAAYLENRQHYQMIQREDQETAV
Method: as §1, §2, §3

primary human T-cells [1] = assay: Proliferation assay after 5 days (CellTiter-Glo, CD3 stimulation; PBS counter screen); type: cell-based; settings: CD3 stimulation; for Emax proliferation (% activation) / Emax: 5 days, normalized to reference compound A1 as stimulator control = 100%, DMSO neutral control; for EC50: primary human T-cells, CellTiter-Glo after 5 days, EC50 of fitted sigmoidal curve, read-out: Tcell Proliferation CD3 EC50; for Emax: read-out: Emax proliferation (% activation)
Outline: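 Read-out: CellTiter-Glo 2.0 luminescence (ATP ∝ cell number) at day 5 after compound addition. Compounds activating unstimulated cells or reducing viability flagged.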

primary human T-cells [2] = system: primary human T-cells
Method: As readouts for T-cell activation, IL2 secretion after 24 hours and proliferation after 5 days was measured. Increases in IL2 secretion and proliferation upon compound treatment were assessed as the % of the maximum of reference compound A1. […] As a counter screen and to make sure that no unwanted TCR-independent activation was triggered, PBS conditions were run for all compounds.
For coating of plates, PBS++ with PBS−− or PBS++ with CD3 antibody (concentration depending on donor and determined by CD3 titrations) was added 100 μl/well to Poly-D Lysine coated 96-well plates. Plates were sealed and incubated at room temperature for 3 hours on a table-top rocking platform. After incubation, plates were washed once with PBS−− and filled with 40 μl/well culture medium only. Compounds were then added (see next section) to medium only plates. After 3 hours of culturing the T-cells, cells were filtered through a cell strainer (Miltenyi Biotech, #130-041-407), counted again and concentration was adjusted to 1.25 Mio/ml.
Cells were then seeded 80 μl/well to the 40 μl/well including dispensed compounds according to plate layout. By adding cells, compounds were further diluted 1:3, and resulting in 100 k cells/120 μl/well. After 24 hours 40 μl of supernatant was collected carefully from the top while not disturbing the cells and transferred into a round bottom 96 well plate. Collected and frozen supernatant was used for detection of IL2 using the IL-2 Human ProQuantum Immunoassay Kit (Invitrogen) or using the Human IL-2 ELISA Kit (Thermo Fisher).
Compounds were added in a 5 or 6pt dose response with the Tecan D300e Digital Dispenser, all conditions 3 times more concentrated than the end-concentration, since cells are added afterwards (80 μl cells to 40 μl prepared medium with treatment). The DR was starting at 20 μM or 10 μM final top concentration and a dilution factor of 3.333. The positive control was the reference compound A1 that was added in a dose response as well, additionally to 3 wells of only 20 μM representing the positive stimulator control. All wells were normalized with DMSO to a final concentration of 0.6% (0.2% end-concentration).
The immunoassay is done following the manufacturer's manual (Invitrogen, #A35603). Additional information: For the immunoassay, MicroAmp™ EnduraPlate™ Optical 384-Well plates are used. Frozen supernatant is thawed and centrifuged for 5 minutes at 1000×g, both steps at 4° C. After centrifugation, required sample amount is taken from the top, and in a separate LightCycler V-bottom plate (working plate) diluted with assay dilution buffer, dilution factor depending on the PBS or CD3 condition but at least 1:3. IL-2 standard and blanks are prepared in the same V-bottom plate, standard with a range of 0.0128-5000 pg/ml (extended version). After preparation, 5 μl of sample dilutions or standard/blanks are transferred to the optical 384-well plate (assay plate) and the 10 μl reaction protocol is being followed. For measurement, the QuantStudio 12K Flex system is used.
ELISA is done following the manufacturer's manual (Thermo Fisher Scientific, #88-7025-88). Additional information: For the ELISA Nunc MaxiSorp 96 well plates are used. Frozen supernatant is thawed and centrifuged for 5 minutes at 1000×g, both steps at 4° C. After that, required sample amount is taken from the top, and in a separate V-bottom plate diluted with ELISA diluent, dilution factor depending on the PBS or CD3 condition. IL-2 standard and blanks are prepared in the same V-bottom plate. After preparation, 50 μl of sample dilutions and 100 μl of standard or blanks are transferred to the Nunc plates.
CD3 and PBS plates were analysed separately in Genedata Screener using Roche Normalization PCT_POS_CTRL with DMSO set as Neutral Control and 20 μM of the reference compound A1 set as Stimulator Control/100%.
For CD3 conditions EC50 and Emax of the fitted sigmoidal curve were reported.

Chain of hDGKalpha(1-735)-N-His (P23743 whole entry): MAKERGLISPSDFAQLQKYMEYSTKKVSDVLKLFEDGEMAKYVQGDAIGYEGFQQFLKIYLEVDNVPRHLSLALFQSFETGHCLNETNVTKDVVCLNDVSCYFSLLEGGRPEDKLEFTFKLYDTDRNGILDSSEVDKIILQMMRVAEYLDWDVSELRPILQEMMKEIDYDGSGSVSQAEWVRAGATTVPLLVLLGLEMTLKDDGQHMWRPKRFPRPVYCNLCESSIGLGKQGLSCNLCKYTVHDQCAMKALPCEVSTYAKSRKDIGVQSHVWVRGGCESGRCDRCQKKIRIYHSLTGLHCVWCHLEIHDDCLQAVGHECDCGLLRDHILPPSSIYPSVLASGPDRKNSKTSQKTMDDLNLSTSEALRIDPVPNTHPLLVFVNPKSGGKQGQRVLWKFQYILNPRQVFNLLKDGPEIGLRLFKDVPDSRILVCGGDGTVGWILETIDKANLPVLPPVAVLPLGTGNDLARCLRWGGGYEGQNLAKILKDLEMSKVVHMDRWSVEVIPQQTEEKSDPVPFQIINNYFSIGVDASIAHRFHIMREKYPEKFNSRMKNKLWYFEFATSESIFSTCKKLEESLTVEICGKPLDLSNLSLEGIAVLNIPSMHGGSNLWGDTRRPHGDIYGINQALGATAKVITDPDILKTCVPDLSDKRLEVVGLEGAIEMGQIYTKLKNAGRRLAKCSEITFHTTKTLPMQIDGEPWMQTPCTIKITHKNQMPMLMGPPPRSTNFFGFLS

IC50 (hDGKalpha(1-735)-N-His) [µM] | IC50 (hDGKzeta(1-928)-N-His) [µM] | EC50 (primary human T-cells [2]) [µM] | Compound | Emax proliferation (% activation) (primary human T-cells [1]) | EC50 (primary human T-cells [1]) [µM] | Emax (primary human T-cells [1]; Homo sapiens, T-cell, 120 h) [%] | EC50 (primary human T-cells [1]; Homo sapiens, T-cell, 120 h) [µM]
2.14 | 0.052 | 3.27 | N[C@H]1C[S+]([O-])c2cc(F)c(-c3noc(N4CCOC(C(F)(F)F)C4)n3)cc2N(Cc2ccc(Cl)cc2)C1=O (single isomer, unassigned; epimer a) [Example 213] | 222 | 1.39 |  | 
2.64 | 0.147 | 5.25 | N[C@H]1C[S+]([O-])c2cc(F)c(-c3noc(N4CCOC5CC54)n3)cc2N(Cc2ccc(Cl)cc2)C1=O (single isomer, unassigned; epimer b) [Example 208] | 106 | 5.31 |  | 
0.975 | 0.046 | 2.95 | N[C@H]1C[S+]([O-])c2cc(F)c(-c3noc(N4CCOC(C(F)(F)F)C4)n3)cc2N(Cc2ccc(Cl)cc2)C1=O (single isomer, unassigned; epimer b) [Example 212] | 178 | 0.338 |  | 
0.513 | 0.672 | 1.11 | CC(C)(CO)n1nnc(-c2cc3c(cc2F)S(=O)(=O)C[C@H](N)C(=O)N3Cc2ccc(Cl)cc2)n1 [Example 28, (3R)-3-amino-5-[(4-chlorophenyl)methyl]-8-fluoro-7-[2-(2-hydroxy-1,1-dimethyl-ethyl)tetrazol-5-yl]-1,1-dioxo-2,3-dihydro-1λ^6,5-benzothiazepin-4-one] |  |  | 129 | 1.26
0.403 | 0.114 | 2.33 | CC(C)Oc1ccc(CN2C(=O)[C@@H](N)CS(=O)(=O)c3cc(F)c(-c4noc(C(N)C(F)(F)F)n4)cc32)cc1 (stereo partly drawn) [Example 48, (3R)-3-amino-7-[5-(1-amino-2,2,2-trifluoro-ethyl)-1,2,4-oxadiazol-3-yl]-8-fluoro-5-[(4-isopropoxyphenyl)methyl]-1,1-dioxo-2,3-dihydro-1λ^6,5-benzothiazepin-4-one] |  |  | 248 | 3.19
0.299 | 0.147 | 1.05 | CC1(C)CN(c2nc(-c3cc4c(cc3F)S(=O)(=O)C[C@H](N)C(=O)N4Cc3ccc(Cl)cc3)no2)CCO1 [Example 205, (3R)-3-amino-5-[(4-chlorophenyl)methyl]-7-[5-(2,2-dimethylmorpholin-4-yl)-1,2,4-oxadiazol-3-yl]-8-fluoro-1,1-dioxo-2,3-dihydro-16,5-benzothiazepin-4-one] |  |  | 119 | 2.12
0.214 | 0.1 | 1.5 | CC(C)Oc1ccc(CN2C(=O)[C@@H](N)CS(=O)(=O)c3cc(F)c(-c4noc(N5CCOC6(CC6)C5)n4)cc32)cn1 [Example 214, (3R)-3-amino-8-fluoro-5-[(6-isopropoxy-3-pyridyl)methyl]-7-[5-(4-oxa-7-azaspiro[2.5]octan-7-yl)-1,2,4-oxadiazol-3-yl]-1,1-dioxo-2,3-dihydro-1λ^6,5-benzothiazepin-4-one] |  |  | 275 | 2.14
0.662 | 0.886 | 5.36 | CC(C)Oc1ccc(CN2C(=O)[C@@H](N)CS(=O)(=O)c3cc(F)c(-c4noc(N5CCOC6(CC6)C5)n4)cc32)nc1 [Example 215] |  |  | 153 | 2.17
0.836 | 1.1 | 0.236 | CC(C)(C)c1nnc(-c2cc3c(cc2F)S(=O)(=O)C[C@H](N)C(=O)N3Cc2ccc(C(C)(C)C#N)cc2)o1 [Example 244, 2-methyl-2-[4-[[(3R)-3-amino-7-(5-tert-butyl-1,3,4-oxadiazol-2-yl)-8-fluoro-1,1,4-trioxo-2,3-dihydro-1λ^6,5-benzothiazepin-5-yl]methyl]phenyl]propanenitrile] |  |  | 102 | 0.137
0.528 | 0.494 | 0.126 | COC(F)(c1nc(-c2cc3c(cc2F)S(=O)(=O)C[C@H](N)C(=O)N3Cc2ccc(Cl)cc2)no1)C(F)(F)F (stereo partly drawn) [Example 292, (3R)-3-amino-5-[(4-chlorophenyl)methyl]-8-fluoro-1,1-dioxo-7-[5-(1,2,2,2-tetrafluoro-1-methoxy-ethyl)-1,2,4-oxadiazol-3-yl]-2,3-dihydro-1λ^6,5-benzothiazepin-4-one] |  |  | 179 | 0.0319
1.15 | 1.2 | 3.31 | CC(C)(C)NC(=O)c1nc(-c2cc3c(cc2F)S(=O)(=O)C[C@H](N)C(=O)N3Cc2ccc(Cl)cc2)no1 [Example 293, 3-[(3R)-3-amino-5-[(4-chlorophenyl)methyl]-8-fluoro-1,1,4-trioxo-2,3-dihydro-1λ^6,5-benzothiazepin-7-yl]-N-tert-butyl-1,2,4-oxadiazole-5-carboxamide] |  |  | 92 | 2.07
0.373 | 0.357 | 0.169 | CC(N)(c1nc(-c2cc3c(cc2F)S(=O)(=O)C[C@H](N)C(=O)N3Cc2ccc(Cl)cc2)no1)C(F)(F)F (stereo partly drawn) [Example 297, (3R)-3-amino-7-[5-(1-amino-2,2,2-trifluoro-1-methyl-ethyl)-1,2,4-oxadiazol-3-yl]-5-[(4-chlorophenyl)methyl]-8-fluoro-1,1-dioxo-2,3-dihydro-1λ^6,5-benzothiazepin-4-one] |  |  | 157 | 0.219
3.94 | 0.481 | 0.243 | N[C@H]1CS(=O)(=O)c2cc(F)c(-c3noc(C(N)(c4ccc(F)cc4)C(F)(F)F)n3)cc2N(Cc2ccc(Cl)cc2)C1=O (stereo partly drawn) [Example 300, (3R)-3-amino-7-[5-[1-amino-2,2,2-trifluoro-1-(4-fluorophenyl)ethyl]-1,2,4-oxadiazol-3-yl]-5-[(4-chlorophenyl)methyl]-8-fluoro-1,1-dioxo-2,3-dihydro-1λ^6,5-benzothiazepin-4-one] |  |  | 193 | 0.127
43.7 | 0.069 | 5.04 | Cc1ccc(S(C)(=O)=O)cc1-c1nc(-c2cc3c(cc2F)S(=O)(=O)C[C@H](N)C(=O)N3Cc2ccc(Cl)cc2)no1 [Example 311, (3R)-3-amino-5-[(4-chlorophenyl)methyl]-8-fluoro-7-[5-(2-methyl-5-methylsulfonyl-phenyl)-1,2,4-oxadiazol-3-yl]-1,1-dioxo-2,3-dihydro-1λ^6,5-benzothiazepin-4-one] |  |  | 67 | 1.09
1.66 | 0.13 | 1.12 | Cc1cc(C)c(-c2nc(-c3cc4c(cc3F)S(=O)(=O)C[C@H](N)C(=O)N4Cc3ccc(Cl)cc3)no2)cn1 [Example 313, (3R)-3-amino-5-[(4-chlorophenyl)methyl]-7-[5-(4,6-dimethyl-3-pyridyl)-1,2,4-oxadiazol-3-yl]-8-fluoro-1,1-dioxo-2,3-dihydro-1λ^6,5-benzothiazepin-4-one] |  |  | 191 | 0.375
6.15 | 0.15 | 0.234 | Cc1cc(S(C)(=O)=O)ccc1-c1nc(-c2cc3c(cc2F)S(=O)(=O)C[C@H](N)C(=O)N3Cc2ccc(Cl)cc2)no1 [Example 314, (3R)-3-amino-5-[(4-chlorophenyl)methyl]-8-fluoro-7-[5-(2-methyl-4-methylsulfonyl-phenyl)-1,2,4-oxadiazol-3-yl]-1,1-dioxo-2,3-dihydro-1λ^6,5-benzothiazepin-4-one] |  |  | 78 | 0.155

Compound | IC50 (hDGKalpha(1-735)-N-His) [µM] | IC50 (hDGKzeta(1-928)-N-His) [µM] | EC50 (primary human T-cells [2]) [µM] | Emax proliferation (% activation) (primary human T-cells [1]) | EC50 (primary human T-cells [1]) [µM] | Emax (primary human T-cells [1]; Homo sapiens, T-cell, 120 h) [%] | EC50 (primary human T-cells [1]; Homo sapiens, T-cell, 120 h) [µM]
CC(C)(C)c1nnc(-c2cc3c(cc2F)S(=O)(=O)C[C@H](N)C(=O)N3Cc2ccc(OC3CCCC3)cc2)o1 [Example 253, (3R)-3-amino-7-(5-tert-butyl-1,3,4-oxadiazol-2-yl)-5-[[4-(cyclopentoxy)phenyl]methyl]-8-fluoro-1,1-dioxo-2,3-dihydro-1λ^6,5-benzothiazepin-4-one] | 0.198 | 0.105 | < 0.0151 |  |  | 116 | 0.0403
COC(=O)N1CCC(c2nc(-c3cc4c(cc3F)S(=O)(=O)C[C@H](N)C(=O)N4Cc3ccc(OC4CCCC4)cc3)no2)C1 (stereo partly drawn) [Example 348, methyl 3-[3-[(3R)-3-amino-5-[[4-(cyclopentoxy)phenyl]methyl]-8-fluoro-1,1,4-trioxo-2,3-dihydro-1λ^6,5-benzothiazepin-7-yl]-1,2,4-oxadiazol-5-yl]pyrrolidine-1-carboxylate] | 2.66 | 0.374 | 1.71 |  |  | 141 | 0.662
